Assay results from US9056865B2, “Pyridine-2-derivatives as smoothened receptor modulators” (Pfizer Inc., priority 2010, dated 2015).
Read-outs that look alike come from different tables or passages of the source.

Assays:
Gli-Luc/MEF cells = experiment: Gli-Luc/MEF assay; assay type: cell-based, mouse; conditions: Mus musculus, MEF; Shh-stimulated luciferase, 48 hours
Procedure, shortened: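 Shh-stimulated luciferase readout (Bright-Glo) after 48 h, 37 °C, 5% CO2, used to derive IC50 of inhibition. Gli-Luc transgenic mouse MEFs received test compounds at final […] in 3-fold dilutions, with recombinant mouse Shh added immediately at final 2 μg/mL.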

[1] = Assessment of brain penetration in rats; assay type: in vivo; conditions: rat
Method: Assessment of Brain Penetration of A-116 in Rats
An in vivo study in rats was conducted to assess the extent of brain penetration of A-116. In this study, approximately 10-week-old (250 grams body weight) Wistar rats were dosed once with 10 mg/kg of A-116 subcutaneously. Three rats per group were euthanized 1 hour, 4 hours, and 7 hours post dose. The plasma, the whole brain, and the cerebral spinal fluid (CSF) were collected to determine the tissue concentrations using HPLC-MS/MS. At 1 hour, 4 hours and 7 hours, the respective brain concentrations were 201±52 ng/g, 224±231 ng/g, and 28 ng/g of tissue. The total plasma concentrations were 2240±296 ng/mL, 2220±1780 ng/mL, and 287±75 ng/mL at 1 hour, 4 hours and 7 hours, respectively. To calculate the unbound plasma concentrations, the total plasma concentrations were multiplied by 0.067, a previously determined unbound fraction of rat plasma protein binding. The resulting unbound plasma concentrations were 150±20 ng/mL (1 hour), 149±119 ng/mL (4 hours), and 19.2±5.0 ng/mL (7 hours). The respective CSF concentrations were 64.4±12.0 ng/mL, 72.1±71.9 ng/mL, and 3.9±2.3 ng/mL at 1 hour, 4 hours, and 7 hours post dose. […] To determine the extent of brain penetration, a ratio of the CSF concentration to the unbound plasma concentration was calculated. At 1 hour, 4 hours, and 7 hours, the ratios were 0.43±0.03, 0.44±0.1, and 0.19±0.06, respectively.

P-glycoprotein = P-glycoprotein (Homo sapiens (Human), UniProt P08183); experiment: P-glycoprotein substrate status; assay type: in vitro ADME
P-glycoprotein, sequence (P08183 whole entry): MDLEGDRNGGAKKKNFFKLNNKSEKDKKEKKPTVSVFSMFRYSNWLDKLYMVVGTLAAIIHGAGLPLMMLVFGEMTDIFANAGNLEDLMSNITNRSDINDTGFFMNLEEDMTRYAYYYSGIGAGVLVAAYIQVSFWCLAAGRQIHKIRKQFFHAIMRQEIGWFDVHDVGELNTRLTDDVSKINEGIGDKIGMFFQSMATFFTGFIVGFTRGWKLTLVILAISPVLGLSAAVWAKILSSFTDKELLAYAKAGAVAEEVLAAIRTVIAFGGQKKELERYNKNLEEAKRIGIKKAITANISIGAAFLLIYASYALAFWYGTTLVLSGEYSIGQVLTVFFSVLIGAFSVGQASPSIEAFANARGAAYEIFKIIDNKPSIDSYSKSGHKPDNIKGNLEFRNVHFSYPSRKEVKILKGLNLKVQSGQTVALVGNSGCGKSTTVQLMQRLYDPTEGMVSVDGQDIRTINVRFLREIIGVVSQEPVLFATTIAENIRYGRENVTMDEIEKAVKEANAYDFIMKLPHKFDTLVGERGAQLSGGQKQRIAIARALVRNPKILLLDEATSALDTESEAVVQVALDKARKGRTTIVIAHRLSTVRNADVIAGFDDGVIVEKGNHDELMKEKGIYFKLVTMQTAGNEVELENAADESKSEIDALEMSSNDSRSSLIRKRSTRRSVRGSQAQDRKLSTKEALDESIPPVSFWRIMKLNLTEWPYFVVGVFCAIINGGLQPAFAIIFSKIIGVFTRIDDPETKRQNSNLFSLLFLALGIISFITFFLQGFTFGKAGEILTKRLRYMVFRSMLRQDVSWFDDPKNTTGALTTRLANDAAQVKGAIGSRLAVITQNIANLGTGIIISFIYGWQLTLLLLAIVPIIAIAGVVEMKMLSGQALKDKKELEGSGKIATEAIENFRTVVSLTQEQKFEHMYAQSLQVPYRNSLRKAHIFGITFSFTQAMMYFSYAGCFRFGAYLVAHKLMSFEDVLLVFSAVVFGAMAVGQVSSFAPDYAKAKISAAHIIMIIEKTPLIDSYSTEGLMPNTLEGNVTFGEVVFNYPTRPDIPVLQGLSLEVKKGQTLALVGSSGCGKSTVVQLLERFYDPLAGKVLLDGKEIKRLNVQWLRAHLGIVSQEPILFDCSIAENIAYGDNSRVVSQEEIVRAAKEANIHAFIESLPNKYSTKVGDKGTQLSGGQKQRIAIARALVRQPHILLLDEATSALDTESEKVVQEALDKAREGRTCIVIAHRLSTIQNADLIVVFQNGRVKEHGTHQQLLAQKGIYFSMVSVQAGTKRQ

Cc1cnc(-c2cc(N3CCN(C(=O)CCS(C)(=O)=O)CC3)ncc2Cl)c(C)c1 [Example A-116, 5′-chloro-3,5-dimethyl-2′-{4-[3-(methylsulfonyl)propanoyl]piperazin-1-yl}-2,4′-bipyridine]
IC50 (Gli-Luc/MEF cells): 2.76 nM | Kp at 1 h ([1]; Wistar, CSF / unbound plasma, subcutaneous, 10 mg/kg, 1 hour, read-out: ratio of the CSF concentration to the unbound plasma concentration): 0.43 ± 0.03 | Kp at 4 h ([1]; Wistar, CSF / unbound plasma, subcutaneous, 10 mg/kg, 4 hours, read-out: ratio of the CSF concentration to the unbound plasma concentration): 0.44 ± 0.1 | Kp at 7 h ([1]; Wistar, CSF / unbound plasma, subcutaneous, 10 mg/kg, 7 hours, read-out: ratio of the CSF concentration to the unbound plasma concentration): 0.19 ± 0.06 | Kp ([1]; Wistar, CSF / unbound plasma, subcutaneous, 10 mg/kg, rats, within 4 hours post dose, read-out: unbound compound in the plasma able to cross the blood brain barrier): ~0.4 | concentration at 1 h ([1]; Wistar, subcutaneous, 10 mg/kg, total plasma concentration multiplied by 0.067, 1 hour, read-out: unbound plasma concentration): 0.15 ± 0.02 µg/mL | concentration at 4 h ([1]; Wistar, subcutaneous, 10 mg/kg, total plasma concentration multiplied by 0.067, 4 hours, read-out: unbound plasma concentration): 0.149 ± 0.119 µg/mL | concentration at 7 h ([1]; Wistar, subcutaneous, 10 mg/kg, total plasma concentration multiplied by 0.067, 7 hours, read-out: unbound plasma concentration): 0.0192 ± 0.005 µg/mL | concentration at 1 h ([1]; CSF, sc, Wistar rats, 10 mg/kg subcutaneously, 1 hour, read-out: CSF concentration): 0.0644 ± 0.012 µg/mL | concentration at 4 h ([1]; CSF, sc, Wistar rats, 10 mg/kg subcutaneously, 4 hours, read-out: CSF concentration): 0.0721 ± 0.0719 µg/mL | concentration at 7 h ([1]; CSF, sc, Wistar rats, 10 mg/kg subcutaneously, 7 hours, read-out: CSF concentration): 0.0039 ± 0.0023 µg/mL | concentration at 1 h ([1]; brain, sc, Wistar rats, 10 mg/kg subcutaneously, 1 hour, read-out: brain concentration): 201 ± 52 ng/g | concentration at 4 h ([1]; brain, sc, Wistar rats, 10 mg/kg subcutaneously, 4 hours, read-out: brain concentration): 224 ± 231 ng/g | concentration at 7 h ([1]; brain, sc, Wistar rats, 10 mg/kg subcutaneously, 7 hours, read-out: brain concentration): 28 ng/g | concentration at 1 h ([1]; plasma, sc, Wistar rats, 10 mg/kg subcutaneously, 1 hour, read-out: total plasma concentration): 2.24 ± 0.296 µg/mL | concentration at 4 h ([1]; plasma, sc, Wistar rats, 10 mg/kg subcutaneously, 4 hours, read-out: total plasma concentration): 2.22 ± 1.78 µg/mL | concentration at 7 h ([1]; plasma, sc, Wistar rats, 10 mg/kg subcutaneously, 7 hours, read-out: total plasma concentration): 0.287 ± 0.075 µg/mL | P-glycoprotein substrate (P-glycoprotein): not a P-glycoprotein substrate
